Reference: patent US6596774B1, “Synthesis, lipid peroxidation and cytotoxic evaluation of 10-substituted 1,5-dichloro-9(10H)-anthracenone derivatives” (priority 2001, dated 2003)
Counter-ions that a name gives are not always drawn.

How the values were obtained:
[1] = test system: Iron-induced Lipid Peroxidation in Rat Brain Homogenates; assay: Assay of lipid peroxidation (TBA method); type: biochemical, Wistar rats; settings: for Inhibition (%) 0.005 mM / Inhibition (%) 0.05 mM / Inhibition % (0.5 mM) / Inhibition (%) 5 mM: Mean ± S.E., n = 4; for Inhibition (%) 0.005 mM / efficiency in lipid peroxidation inhibition versus ascorbic acid, (+)-α-tocopherol and mitoxantrone (in words): 0.005 mM; for Inhibition % (0.5 mM) / inhibitory effect on lipid peroxidation compared to ascorbic acid, (+)-α-tocopherol and mitoxantrone (in words): 0.5 mM
Experimental: The inhibitory effect on lipid peroxidation of these compounds were evaluated with rat brain phospholipid liposomes which provide an ideal model system for lipid peroxidation studies by Teng C. M., et. al., Eur. J. Pharmacol., vol. 303, pp. 129-139 (1996).
Assay of Lipid Peroxidation. Rat brain homogenate was prepared from the brains of freshly killed Wistar rats and its peroxidation in the presence of iron ions was measured by the thiobarbituric acid (TBA) method as described. The extent of lipid peroxidation was estimated as thiobarbituric acid-reactive substances and was read at 532 nm in a spectrophotometer (Shimadzu UV-160).

[2] = test system: Human Oral Epidermoid Carcinoma Cells (KB cell line); assay: Cytotoxic activity test (cell proliferation assay), KB cells; type: cell-based; settings: 50% inhibition of cellular growth following 48 h of drug exposure
Description: (§1) We evaluated the ability of the compounds to inhibit the growth of human oral epidermoid carcinoma cells (KB cell line), human cervical carcinoma cells of ME 180 (GBM8401) and Chinese hamster ovary (CHO) cells as normal cells, and lipid peroxidation in model membranes, respectively.
(§2) Cytotoxic Activity Test. Human oral epidermoid carcinoma cells (KB cell line), human cervical carcinoma cells of ME 180 (GBM8401) and Chinese hamster ovary (CHO) cells grown in plateau phase were cultivated, and the cell proliferation assay was performed as previously described. Inhibition of cellular growth was calculated by comparison of the mean values of the test compound (N=3) with the control (N=6-8) activity: (1-test compound/control)×100.

[3] = test system: Human Cervical Carcinoma Cells of ME 180 (GBM8401); assay: Cytotoxic activity test (cell proliferation assay), GBM8401 cells; type: cell-based; settings: for IC50: Homo sapiens, ME-180, GBM8401 cells, 50% inhibition of cellular growth following 48 h of drug exposure
Description: as §1, §2

[4] = test system: Chinese Hamster Ovary (CHO) Cells; assay: Cytotoxic activity test (cell proliferation assay), CHO cells as normal cells; type: cell-based; settings: for IC50: Cricetulus griseus, 50% inhibition of cellular growth following 48 h of drug exposure; for toxicity in CHO compared with mitoxantrone (in words): versus mitoxantrone
Description: as §1, §2

SMILES	Inhibition (%) 0.005 mM ([1]; Table 3)	Inhibition (%) 0.05 mM ([1]; Table 3)	Inhibition % (0.5 mM) ([1]; Table 2)	Inhibition % (0.5 mM) ([1]; Table 3)	Inhibition (%) 5 mM ([1]; Table 3)	IC50 [2]	IC50 [3]	IC50 [4]	toxicity in CHO compared with mitoxantrone (in words) [4]	cytotoxicity on GBM in vitro assay (in words) [3]	efficiency in lipid peroxidation inhibition versus ascorbic acid, (+)-α-tocopherol and mitoxantrone (in words) [1]	inhibitory effect on lipid peroxidation compared to ascorbic acid, (+)-α-tocopherol and mitoxantrone (in words) [1]
Cc1c(C)c2c(c(C)c1O)CC[C@@](C)(CCC[C@H](C)CCC[C@H](C)CCCC(C)C)O2 [(+)-α-tocopherol, reference compound]	0%	0%	53 ± 4.4%	53 ± 1.7%	100%							
COC1c2cccc(Cl)c2C(=O)c2cccc(Cl)c21 (centres unmarked) [Compound 3a, 10-Methoxy 1,5-dichloro-9(10 H)-anthracenone]			7 ± 0.1%			8.8 µM	23.5 µM	2.9 µM	more toxic in CHO than mitoxantrone			
CCOC1c2cccc(Cl)c2C(=O)c2cccc(Cl)c21 (centres unmarked) [Compound 3b, 10-Ethoxy 1,5-dichloro-9(10 H)-anthracenone]			7 ± 0.1%			6.1 µM	21.8 µM	5.8 µM				
CCCOC1c2cccc(Cl)c2C(=O)c2cccc(Cl)c21 (centres unmarked) [Compound 3c, 10-Propyloxy 1,5-dichloro-9(10 H)-anthracenone]			29 ± 2.5%			1.8 µM	11.1 µM	42 µM				
CC(C)OC1c2cccc(Cl)c2C(=O)c2cccc(Cl)c21 (centres unmarked) [Compound 3d, 10-(2-Propyloxy) 1,5-dichloro-9(10 H)-anthracenone]			13 ± 1.3%			21.8 µM	65.4 µM	15.2 µM				
CCCCOC1c2cccc(Cl)c2C(=O)c2cccc(Cl)c21 (centres unmarked) [Compound 3e, 10-(Butyloxy) 1,5-dichloro-9(10 H)-anthracenone]			31 ± 3.7%			29.5 µM	29.5 µM	8 µM				
CC(C)COC1c2cccc(Cl)c2C(=O)c2cccc(Cl)c21 (centres unmarked) [Compound 3f, 10-(iso-Butyloxy) 1,5-dichloro-9(10 H)-anthracenone]			38 ± 3.1%			14.7 µM	43.2 µM	20.1 µM				
O=C1c2cccc(Cl)c2C(OCc2ccccc2)c2cccc(Cl)c21 (centres unmarked) [Compound 3g, 10-Benzyloxy 1,5-dichloro-9(10 H)-anthracenone]			16 ± 1.5%			93.4 µM	18.5 µM	24.7 µM				
CCN(CC)C1c2cccc(Cl)c2C(=O)c2cccc(Cl)c21 (centres unmarked) [Compound 4a, 10-Diethylamino 1,5-dichloro-9(10 H)-anthracenone]			12 ± 1.4%			17.2 µM	7.5 µM	15 µM		high cytotoxicity and significant activity		
Cc1cccc(NC2c3cccc(Cl)c3C(=O)c3cccc(Cl)c32)c1 (centres unmarked) [Compound 4b, 10-(m-Toluidino) 1,5-dichloro-9(10 H)-anthracenone]	23 ± 2.4%	92 ± 4.1%	100%	100%	100%	9.5 µM	11.2 µM	6.2 µM			significantly more efficient	better inhibitory effect
Cc1ccccc1NC1c2cccc(Cl)c2C(=O)c2cccc(Cl)c21 (centres unmarked) [Compound 4c, 10-(o-Toluidino) 1,5-dichloro-9(10 H)-anthracenone]			73 ± 3.5%			3.4 µM	2.4 µM	3.8 µM	more toxic in CHO than mitoxantrone	high cytotoxicity and significant activity		
Cc1ccc(NC2c3cccc(Cl)c3C(=O)c3cccc(Cl)c32)cc1 (centres unmarked) [Compound 4d, 10-(p-Toluidino) 1,5-dichloro-9(10 H)-anthracenone]	33 ± 2.7%	94 ± 3.5%	100%	100%	100%	11.3 µM	4.6 µM	3 µM	more toxic in CHO than mitoxantrone	high cytotoxicity and significant activity	significantly more efficient	better inhibitory effect
O=C1O[C@H]([C@@H](O)CO)C(O)=C1O [ascorbic acid, reference compound]	7 ± 0.5%	22 ± 2.2%	87 ± 3.1%	87 ± 2.5%	100%							
O=C1c2c(O)ccc(O)c2C(=O)c2c(NCCNCCO)ccc(NCCNCCO)c21 [mitoxantrone-HCl, reference compound]	10 ± 1.1%	52 ± 3.5%	64 ± 2.8%	64 ± 2.1%	100%	1.7 µM	1.5 µM	4 µM				
